According to patent US20120058989A1, “ANTIBACTERIAL FLUOROQUINOLONE ANALOGS” (Achaogen, Inc., priority 2008, published 2012):

Assays:
Assay in all cases: MIC, CLSI broth microdilution
Format in all cases: cell-based
[1] = tested on: A. baumannii AABA1009 (Fluoroquinolone-resistant); conditions: Table 2
How it was run: (§1)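 MICs were read after 20 hours at 35° C in ambient air, with a final inoculum of 5×10^5 CFU/mL from saline-suspended overnight colonies. Serial two-fold dilutions in Mueller Hinton Broth followed the CLSI reference method (M7-A7), with QC strains E. coli ATCC 25922, P. aeruginosa ATCC 27853 and S. aureus ATCC 29213.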

[2] = tested on: P. aeruginosa APAE001 (Fluoroquinolone-susceptible, ATCC27853); conditions: Table 2
How it was run: as §1

[3] = tested on: S. aureus ASAU001 (Fluoroquinolone-susceptible, ATCC29213); conditions: Table 2
How it was run: as §1

[4] = tested on: E. coli AECO066 (Fluoroquinolone-resistant); conditions: Table 2
How it was run: as §1

[5] = tested on: S. aureus ASAU1031 (Fluoroquinolone-resistant); conditions: Table 2
How it was run: as §1

[6] = tested on: A. baumannii AABA1065 (Fluoroquinolone-susceptible); conditions: Table 2
How it was run: as §1

[7] = tested on: E. coli AECO001 (Fluoroquinolone susceptible, ATCC25922); conditions: Table 2, 35° C., 20 hours
How it was run: as §1

[8] = tested on: P. aeruginosa APAE054 (Fluoroquinolone-resistant); conditions: Table 2
How it was run: as §1

[9] = tested on: S. pneumoniae ASPN001 (Fluoroquinolone-susceptible, ATCC49619); conditions: Table 2
How it was run: as §1

[10] = tested on: S. pneumoniae ASPN1027 (Fluoroquinolone-resistant); conditions: Table 2
How it was run: as §1

O=C(O)c1cn(C2CC2)c2c3c(c(F)cc2c1=O)N1C(=O)CC[C@H]1CC=C3 [23/12, (7aS)-4-Cyclopropyl-12-fluoro-1,10-dioxo-4,7,7a,8,9,10-hexahydro-1H-pyrrolo[1′,2′:1,7]azepino[2,3-h]quino-line-2-carboxylic acid]
MIC AABA 1009 [1]: C (MIC's of greater than 8.0 μg/mL = C) | MIC APAE 001 [2]: C (MIC's of greater than 8.0 μg/mL = C) | MIC ASAU 001 [3]: B (MIC's of greater than 1.0 μg/mL to 8.0 μg/mL = B) | MIC AECO 066 [4]: C (MIC's of greater than 8.0 μg/mL = C) | MIC ASAU 1031 [5]: C (MIC's of greater than 8.0 μg/mL = C) | MIC AABA 1065 [6]: C (MIC's of greater than 8.0 μg/mL = C) | MIC AECO 001 [7]: C (MIC's of greater than 8.0 μg/mL = C) | MIC APAE 054 [8]: C (MIC's of greater than 8.0 μg/mL = C) | MIC ASPN 001 [9]: C (MIC's of greater than 8.0 μg/mL = C) | MIC ASPN 1027 [10]: C (MIC's of greater than 8.0 μg/mL = C)

O=C(O)c1cn(C2CC2)c2c3c(c(F)cc2c1=O)N1C(=O)CC[C@H]1CCC3 [23/14, (7aR)-4-Cyclopropyl-12-fluoro-1,10-dioxo-4,5,6,7,7a,8,9,10-octahydro-1H-pyrrolo[1′,2′:1,7]azepino[2,3-h]quinoline-2-carboxylic acid]
MIC AABA 1009 [1]: C (MIC's of greater than 8.0 μg/mL = C) | MIC APAE 001 [2]: C (MIC's of greater than 8.0 μg/mL = C) | MIC ASAU 001 [3]: C (MIC's of greater than 8.0 μg/mL = C) | MIC AECO 066 [4]: C (MIC's of greater than 8.0 μg/mL = C) | MIC ASAU 1031 [5]: C (MIC's of greater than 8.0 μg/mL = C) | MIC AABA 1065 [6]: C (MIC's of greater than 8.0 μg/mL = C) | MIC AECO 001 [7]: C (MIC's of greater than 8.0 μg/mL = C) | MIC APAE 054 [8]: C (MIC's of greater than 8.0 μg/mL = C) | MIC ASPN 001 [9]: C (MIC's of greater than 8.0 μg/mL = C) | MIC ASPN 1027 [10]: C (MIC's of greater than 8.0 μg/mL = C)

N[C@H]1C[C@H]2CC=Cc3c(ccc4c(=O)c(C(=O)O)cn(C5CC5)c34)N2C1 [25/14, (7aR,9S)-9-amino-4-cyclopropyl-1-oxo-4,7,7a,8,9,10-hexahydro-1H-pyrrolo[1′,2′:1,7]azepino[2,3-h]quinoline-2-carboxylic Acid]
MIC AABA 1009 [1]: C (MIC's of greater than 8.0 μg/mL = C) | MIC APAE 001 [2]: B (MIC's of greater than 1.0 μg/mL to 8.0 μg/mL = B) | MIC ASAU 001 [3]: A (MIC's of 1.0 μg/mL or less = A) | MIC AECO 066 [4]: C (MIC's of greater than 8.0 μg/mL = C) | MIC ASAU 1031 [5]: C (MIC's of greater than 8.0 μg/mL = C) | MIC AABA 1065 [6]: A (MIC's of 1.0 μg/mL or less = A) | MIC AECO 001 [7]: A (MIC's of 1.0 μg/mL or less = A) | MIC APAE 054 [8]: C (MIC's of greater than 8.0 μg/mL = C) | MIC ASPN 001 [9]: A (MIC's of 1.0 μg/mL or less = A) | MIC ASPN 1027 [10]: B (MIC's of greater than 1.0 μg/mL to 8.0 μg/mL = B)

N[C@@H]1CCN2c3c(F)cc4c(=O)c(C(=O)O)cn(C5CC5)c4c3C=NC[C@H]12.O=C(O)C(F)(F)F [26/16, (3aR,4R)-4-Amino-13-cyclopropyl-8-fluoro-10-oxo-3a,4,5,6,10,13-hexahydro-3H-pyrrolo[2′,1′:3,4][1,4]diazepino[5,6-h]quinoline-11-carboxylic acid trifluoroacetate]
MIC AABA 1009 [1]: C (MIC's of greater than 8.0 μg/mL = C) | MIC APAE 001 [2]: B (MIC's of greater than 1.0 μg/mL to 8.0 μg/mL = B) | MIC ASAU 001 [3]: B (MIC's of greater than 1.0 μg/mL to 8.0 μg/mL = B) | MIC AECO 066 [4]: C (MIC's of greater than 8.0 μg/mL = C) | MIC ASAU 1031 [5]: C (MIC's of greater than 8.0 μg/mL = C) | MIC AABA 1065 [6]: B (MIC's of greater than 1.0 μg/mL to 8.0 μg/mL = B) | MIC AECO 001 [7]: A (MIC's of 1.0 μg/mL or less = A) | MIC APAE 054 [8]: C (MIC's of greater than 8.0 μg/mL = C) | MIC ASPN 001 [9]: B (MIC's of greater than 1.0 μg/mL to 8.0 μg/mL = B) | MIC ASPN 1027 [10]: C (MIC's of greater than 8.0 μg/mL = C)

N[C@@H]1CCN2c3c(F)cc4c(=O)c(C(=O)O)cn(C5CC5)c4c3CNC[C@H]12.O=C(O)C(F)(F)F.O=C(O)C(F)(F)F [26/17, (3aR,4R)-4-Amino-13-cyclopropyl-8-fluoro-10-oxo-2,3,3a,4,5,6,10,13-octahydro-1H-pyrrolo[2′,1′:3,4][1,4]diazepino[5,6-h]quinoline-11-carboxylic acid bis(trifluoroacetate)]
MIC AABA 1009 [1]: C (MIC's of greater than 8.0 μg/mL = C) | MIC APAE 001 [2]: B (MIC's of greater than 1.0 μg/mL to 8.0 μg/mL = B) | MIC ASAU 001 [3]: B (MIC's of greater than 1.0 μg/mL to 8.0 μg/mL = B) | MIC AECO 066 [4]: C (MIC's of greater than 8.0 μg/mL = C) | MIC ASAU 1031 [5]: C (MIC's of greater than 8.0 μg/mL = C) | MIC AABA 1065 [6]: B (MIC's of greater than 1.0 μg/mL to 8.0 μg/mL = B) | MIC AECO 001 [7]: A (MIC's of 1.0 μg/mL or less = A) | MIC APAE 054 [8]: C (MIC's of greater than 8.0 μg/mL = C) | MIC ASPN 001 [9]: B (MIC's of greater than 1.0 μg/mL to 8.0 μg/mL = B) | MIC ASPN 1027 [10]: C (MIC's of greater than 8.0 μg/mL = C)

O=C(O)c1cn(C2CC2)c2c3c(c(F)cc2c1=O)N1CCCC1CC=C3 (stereo not drawn) [27/5, 4-Cyclopropyl-12-fluoro-1-oxo-4,7,7a,8,9,10-hexahydro-1H-pyrrolo[1′,2′:1,7]azepino[2,3-h]quinoline-2-carboxylic acid]
MIC AABA 1009 [1]: C (MIC's of greater than 8.0 μg/mL = C) | MIC APAE 001 [2]: C (MIC's of greater than 8.0 μg/mL = C) | MIC ASAU 001 [3]: A (MIC's of 1.0 μg/mL or less = A) | MIC AECO 066 [4]: C (MIC's of greater than 8.0 μg/mL = C) | MIC ASAU 1031 [5]: B (MIC's of greater than 1.0 μg/mL to 8.0 μg/mL = B) | MIC AABA 1065 [6]: B (MIC's of greater than 1.0 μg/mL to 8.0 μg/mL = B) | MIC AECO 001 [7]: A (MIC's of 1.0 μg/mL or less = A) | MIC APAE 054 [8]: C (MIC's of greater than 8.0 μg/mL = C) | MIC ASPN 001 [9]: A (MIC's of 1.0 μg/mL or less = A) | MIC ASPN 1027 [10]: C (MIC's of greater than 8.0 μg/mL = C)

O=C(O)c1cn(C2CC2)c2c3c(c(F)cc2c1=O)N1CCCC1CCC3 (stereo not drawn) [27/7, 4-Cyclopropyl-12-fluoro-1-oxo-4,5,6,7,7a,8,9,10-octahydro-1H-pyrrolo[1′,2′:1,7]azepino[2,3-h]quinoline-2-carboxylic acid]
MIC AABA 1009 [1]: C (MIC's of greater than 8.0 μg/mL = C) | MIC APAE 001 [2]: C (MIC's of greater than 8.0 μg/mL = C) | MIC ASAU 001 [3]: A (MIC's of 1.0 μg/mL or less = A) | MIC AECO 066 [4]: C (MIC's of greater than 8.0 μg/mL = C) | MIC ASAU 1031 [5]: B (MIC's of greater than 1.0 μg/mL to 8.0 μg/mL = B) | MIC AABA 1065 [6]: C (MIC's of greater than 8.0 μg/mL = C) | MIC AECO 001 [7]: B (MIC's of greater than 1.0 μg/mL to 8.0 μg/mL = B) | MIC APAE 054 [8]: C (MIC's of greater than 8.0 μg/mL = C) | MIC ASPN 001 [9]: B (MIC's of greater than 1.0 μg/mL to 8.0 μg/mL = B) | MIC ASPN 1027 [10]: C (MIC's of greater than 8.0 μg/mL = C)

O=C(O)c1cn(C2CC2)c2c3c(c(F)cc2c1=O)N1CCCC1CC(O)C3O (stereo not drawn) [27/9, 4-Cyclopropyl-12-fluoro-5,6-dihydroxy-1-oxo-4,5,6,7,7a,8,9,10-octahydro-1H-pyrrolo[1′,2′:1,7]azepino[2,3-h]quinoline-2-carboxylic acid]
MIC AABA 1009 [1]: C (MIC's of greater than 8.0 μg/mL = C) | MIC APAE 001 [2]: C (MIC's of greater than 8.0 μg/mL = C) | MIC ASAU 001 [3]: B (MIC's of greater than 1.0 μg/mL to 8.0 μg/mL = B) | MIC AECO 066 [4]: C (MIC's of greater than 8.0 μg/mL = C) | MIC ASAU 1031 [5]: C (MIC's of greater than 8.0 μg/mL = C) | MIC AABA 1065 [6]: B (MIC's of greater than 1.0 μg/mL to 8.0 μg/mL = B) | MIC AECO 001 [7]: B (MIC's of greater than 1.0 μg/mL to 8.0 μg/mL = B) | MIC APAE 054 [8]: C (MIC's of greater than 8.0 μg/mL = C) | MIC ASPN 001 [9]: C (MIC's of greater than 8.0 μg/mL = C) | MIC ASPN 1027 [10]: C (MIC's of greater than 8.0 μg/mL = C)

O=C1Cc2c(c(F)cc3c(=O)c(C(=O)O)cn(C4CC4)c23)N2CCCC2C1 (stereo not drawn) [27/10, 4-Cyclopropyl-12-fluoro-1,6-dioxo-4,5,6,7,7a,8,9,10-octahydro-1H-pyrrolo[1′,2′:1,7]azepino[2,3-h]quinoline-2-carboxylic acid]
MIC AABA 1009 [1]: C (MIC's of greater than 8.0 μg/mL = C) | MIC APAE 001 [2]: C (MIC's of greater than 8.0 μg/mL = C) | MIC ASAU 001 [3]: B (MIC's of greater than 1.0 μg/mL to 8.0 μg/mL = B) | MIC AECO 066 [4]: C (MIC's of greater than 8.0 μg/mL = C) | MIC ASAU 1031 [5]: C (MIC's of greater than 8.0 μg/mL = C) | MIC AABA 1065 [6]: B (MIC's of greater than 1.0 μg/mL to 8.0 μg/mL = B) | MIC AECO 001 [7]: B (MIC's of greater than 1.0 μg/mL to 8.0 μg/mL = B) | MIC APAE 054 [8]: C (MIC's of greater than 8.0 μg/mL = C) | MIC ASPN 001 [9]: C (MIC's of greater than 8.0 μg/mL = C) | MIC ASPN 1027 [10]: C (MIC's of greater than 8.0 μg/mL = C)
